# Measured values as given in patent US8735414B2 (priority 2009, dated 2014).
# Experiments:
# [1] = tested on: bicistronic HCV replicon (replicon RNA, GenBank Accession No. AJ242654); experiment: HCV Replicon Assay; assay type: cell-based; settings: Hepatitis C virus, 72 h, read-out: Replicon IC50
SMILES,IC50 [1],melting point
"C[C@H](NS(=O)(=O)c1cnc(-c2c(C#N)c3ccc(C4CC4)cc3n2C2CCC2)nc1)C1CC1 [compound 131, 2-(3-cyano-1-cyclobutyl-6-cyclopropyl-1H-indol-2-yl)-N-[(1S)-1-cyclopropylethyl]pyrimidine-5-sulfonamide]",< 0.5 µM,165 to 167 °C
"Cc1ccc2c(C#N)c(-c3ncc(S(=O)(=O)NC(CF)CF)cn3)n(C3CCC3)c2c1 [compound 132, 2-(3-cyano-1-cyclobutyl-6-methyl-1H-indol-2-yl)-N-(1,3-difluoropropan-2-yl)pyrimidine-5-sulfonamide]",< 0.5 µM,236 to 238 °C
"Cc1ccc2c(C#N)c(-c3ncc(S(=O)(=O)NC(CF)CF)cn3)n(CC3CC3)c2c1 [compound 133, 2-[3-cyano-1-(cyclopropylmethyl)-6-methyl-1H-indol-2-yl]-N-(1,3-difluoropropan-2-yl)pyrimidine-5-sulfonamide]",< 0.5 µM,261 to 262 °C
"Cc1ccc2c(C#N)c(-c3ncc(S(=O)(=O)NC(CF)CF)cn3)n(C(C)C)c2c1 [compound 134, 2-[3-cyano-6-methyl-1-(propan-2-yl)-1H-indol-2-yl]-N-(1,3-difluoropropan-2-yl)pyrimidine-5-sulfonamide]",< 0.5 µM,213 to 215 °C
"Cc1ccc2c(C#N)c(-c3ncc(S(=O)(=O)NC(CF)CF)cn3)n(C3CCCC3)c2c1 [compound 135, 2-(3-cyano-1-cyclopentyl-6-methyl-1H-indol-2-yl)-N-(1,3-difluoropropan-2-yl)pyrimidine-5-sulfonamide]",< 0.5 µM,229 to 231 °C
"N#Cc1c(-c2ncc(S(=O)(=O)NC(CF)CF)cn2)n(CC2CC2)c2cc(OC(F)F)ccc12 [compound 136, 2-[3-cyano-1-(cyclopropylmethyl)-6-(difluoromethoxy)-1H-indol-2-yl]-N-(1,3-difluoropropan-2-yl)pyrimidine-5-sulfonamide]",< 0.5 µM,207 to 209 °C
"CC(C)n1c(-c2ncc(S(=O)(=O)NC(CF)CF)cn2)c(C#N)c2ccc(OC(F)F)cc21 [compound 137, 2-[3-cyano-6-(difluoromethoxy)-1-(propan-2-yl)-1H-indol-2-yl]-N-(1,3-difluoropropan-2-yl)pyrimidine-5-sulfonamide]",< 0.5 µM,219 to 221 °C
"CC(C)NS(=O)(=O)c1cnc(-c2c(C#N)c3ccc(F)cc3n2C2CCC2)nc1 [compound 138, 2-(3-cyano-1-cyclobutyl-6-fluoro-1H-indol-2-yl)-N-(propan-2-yl)pyrimidine-5-sulfonamide]",0.5 to 2 µM,193 to 195 °C
"CC(C)NS(=O)(=O)c1cnc(-c2c(C#N)c3ccc(F)cc3n2CC2CC2)nc1 [compound 139, 2-[3-cyano-1-(cyclopropylmethyl)-6-fluoro-1H-indol-2-yl]-N-(propan-2-yl)pyrimidine-5-sulfonamide]",0.5 to 2 µM,218 to 219 °C
"CC(C)NS(=O)(=O)c1cnc(-c2c(C#N)c3ccc(F)cc3n2C(C)C)nc1 [compound 140, 2-[3-cyano-6-fluoro-1-(propan-2-yl)-1H-indol-2-yl]-N-(propan-2-yl)pyrimidine-5-sulfonamide]",0.5 to 2 µM,158 to 160 °C
"CC(C)NS(=O)(=O)c1cnc(-c2c(C#N)c3ccc(F)cc3n2C2CCCC2)nc1 [compound 141, 2-(3-cyano-1-cyclopentyl-6-fluoro-1H-indol-2-yl)-N-(propan-2-yl)pyrimidine-5-sulfonamide]",0.5 to 2 µM,216 to 217 °C
"C[C@H](NS(=O)(=O)c1ccc(-c2c(C#N)c3cc(F)ccc3n2C2CCC2)nc1)C1CC1 [compound 142, 6-(3-cyano-1-cyclobutyl-5-fluoro-1H-indol-2-yl)-N-[(1S)-1-cyclopropylethyl]pyridine-3-sulfonamide]",< 0.5 µM,128 to 130 °C
